Biological target: T1, IKKβ (Homo sapiens, UniProt O14920)
T1 construct: purchased Upstate Biotechnology Inc. 14-485
T1 sequence (O14920 1-756): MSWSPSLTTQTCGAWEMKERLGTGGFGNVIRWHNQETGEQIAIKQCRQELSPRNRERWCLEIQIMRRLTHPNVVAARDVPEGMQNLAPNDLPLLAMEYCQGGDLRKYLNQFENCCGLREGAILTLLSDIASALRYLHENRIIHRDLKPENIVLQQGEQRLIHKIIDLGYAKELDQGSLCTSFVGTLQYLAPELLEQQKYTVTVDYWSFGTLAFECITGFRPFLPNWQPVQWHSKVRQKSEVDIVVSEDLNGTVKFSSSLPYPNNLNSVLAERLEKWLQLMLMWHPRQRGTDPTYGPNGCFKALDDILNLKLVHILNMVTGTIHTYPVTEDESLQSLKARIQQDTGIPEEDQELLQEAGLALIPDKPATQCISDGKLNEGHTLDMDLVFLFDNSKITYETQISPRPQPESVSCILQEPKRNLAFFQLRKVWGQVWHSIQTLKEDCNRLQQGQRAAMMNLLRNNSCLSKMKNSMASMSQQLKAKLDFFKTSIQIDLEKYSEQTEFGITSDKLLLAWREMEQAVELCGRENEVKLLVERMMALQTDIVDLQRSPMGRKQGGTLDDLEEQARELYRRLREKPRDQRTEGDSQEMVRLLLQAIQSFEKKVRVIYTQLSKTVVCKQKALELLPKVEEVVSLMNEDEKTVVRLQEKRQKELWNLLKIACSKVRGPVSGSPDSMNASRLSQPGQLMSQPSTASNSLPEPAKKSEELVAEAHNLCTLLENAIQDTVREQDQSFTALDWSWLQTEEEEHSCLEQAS
Assay: IKKβ inhibition assay by fluorescence polarization (IMAP kit)
Assay type: biochemical
Settings: test compound at 1 μM; inhibition rate exceeding 100% is indicated as 100%
Method: In order to evaluate IKKβ inhibitory activity of the present compounds, an IKKβ inhibition assay by the fluorescence polarization method was conducted.
The assay was conducted using IMAP™ IKKβ assay kit (manufactured by Molecular Devices Corporation, catalogue No. R8115) or IMAP™ FP Screening Express kit (manufactured by Molecular Devices Corporation, catalogue No. R8127) and in accordance with the protocol attached to each kit. The specific methods are described below. (Preparation of Reagents)
1) Complete Reaction Buffer: a complete reaction buffer was so prepared as to obtain a final concentration of 10 mM Tris-HCL (pH 7.2), 10 mM magnesium chloride, 0.1% bovine serum albumin, and 1 mM dithiothreitol.
2) Substrate Working Solution: 400 nM of a substrate working solution was prepared by dissolving and diluting a fluorescein-labeled IKKβ substrate peptide (amino acid sequence: GRHDSGLDSMK) with the complete reaction buffer.
3) Enzyme Working Solution: 0.2 units/mL of an enzyme working solution was prepared by diluting IKKβ solution (manufactured by Upstate Biotechnology Inc., catalogue No. 14-485) with the complete reaction buffer.
4) ATP Working Solution: 8 μM of an ATP working solution was prepared by dissolving ATP into ultrapure water followed by diluting it with the complete reaction buffer.
5) IMAP binding solution: After diluting an IMAP binding buffer with ultrapure water, an IMAP binding solution was prepared by diluting an IMAP binding reagent with the diluted IMAP binding buffer.
A test compound was dissolved in dimethylsulfoxide followed by diluting it with the complete reaction buffer to prepare 4 μM of a test compound solution.
1) To a 384-well plate, the test compound solution, the enzyme working solution, the substrate working solution, and the ATP working solution were added in an amount of 5 μL per well.
2) Incubation was performed at a room temperature for 60 minutes under light shielding.
3) The IMAP binding solution was added in an amount of 60 μL per well.
4) Incubation was performed at a room temperature for 30 minutes under light shielding.
5) Fluorescence polarization value of each well was measured by using Analyst™ HT (multimode plate reader manufactured by Molecular Devices Corporation) and Criterion Host Software v2.00 (manufactured by Molecular Devices Corporation).
6) Operations were performed in the same manner as in 1) to 5) except for changing the test compound to 0.4% dimethylsulfoxide. The obtained result was designated as a control.
7) Operations were performed in the same manner as in 1) to 5) except for changing the test compound and the enzyme working solution to 0.4% dimethylsulfoxide and the complete reaction buffer, respectively. The obtained result was designated as a background.
An IKKβ inhibition rate (%) was calculated by the following equation.
IKKβ inhibition rate (%)=100×{1−(fluorescence polarization value of test compound−fluorescence polarization value of background)/(fluorescence polarization value of control−fluorescence polarization value of background)}

Compound	inhibition at 1 µM
N#Cc1cccc(-c2ccc3c(C(N)=O)c(NC(N)=O)[nH]c3c2)c1 [Compound 4-15, 2-Aminocarbonylamino-6-(3-cyanophenyl)indole-3-carboxamide]	100%
NC(=O)Nc1[nH]c2cc(-c3cccc([N+](=O)[O-])c3)ccc2c1C(N)=O [Compound 4-16, 2-Aminocarbonylamino-6-(3-nitrophenyl)indole-3-carboxamide]	100%
CS(=O)(=O)Nc1cccc(-c2ccc3c(C(N)=O)c(NC(N)=O)[nH]c3c2)c1 [Compound 4-17, 2-Aminocarbonylamino-6-(3-methylsulfonylaminophenyl)indole-3-carboxamide]	100%
NC(=O)Nc1[nH]c2cc(-c3ccsc3)ccc2c1C(N)=O [Compound 4-18, 2-Aminocarbonylamino-6-(thiophen-3-yl)indole-3-carboxamide]	98%
NC(=O)Nc1[nH]c2cc(-c3ccco3)ccc2c1C(N)=O [Compound 4-19, 2-Aminocarbonylamino-6-(furan-2-yl)indole-3-carboxamide]	100%
NC(=O)Nc1[nH]c2cc(-c3ccoc3)ccc2c1C(N)=O [Compound 4-22, 2-Aminocarbonylamino-6-(furan-3-yl)indole-3-carboxamide]	100%
NC(=O)Nc1[nH]c2cc(-c3ccsc3Cl)ccc2c1C(N)=O [Compound 4-23, 2-Aminocarbonylamino-6-(2-chlorothiophen-3-yl)indole-3-carboxamide]	100%
NC(=O)Nc1[nH]c2cc(-c3cnc4ccccc4c3)ccc2c1C(N)=O [Compound 4-36, 2-Aminocarbonylamino-6-(quinolin-3-yl)indole-3-carboxamide]	99%
C=Cc1ccc2c(C(N)=O)c(NC(N)=O)[nH]c2c1 [Compound 4-38, 2-Aminocarbonylamino-6-vinylindole-3-carboxamide]	100%
COC/C=C/c1ccc2c(C(N)=O)c(NC(N)=O)[nH]c2c1 [Compound 4-58, 2-Aminocarbonylamino-6-[(E)-3-methoxy-1-propenyl]indole-3-carboxamide]	99%
NC(=O)Nc1[nH]c2cc(-c3ccc4[nH]ccc4c3)ccc2c1C(N)=O [Compound 4-65, 2-Aminocarbonylamino-6-(indol-5-yl)indole-3-carboxamide]	100%
CCC/C=C/c1ccc2c(C(N)=O)c(NC(N)=O)[nH]c2c1 [Compound 4-67, 2-Aminocarbonylamino-6-[(E)-1-pentenyl]indole-3-carboxamide]	94%
CN(C)c1ccc(-c2ccc3c(C(N)=O)c(NC(N)=O)[nH]c3c2)cc1 [Compound 4-78, 2-Aminocarbonylamino-6-(4-dimethylaminophenyl)indole-3-carboxamide]	95%
Cc1c(-c2ccoc2)ccc2c(C(N)=O)c(NC(N)=O)[nH]c12 [Compound 4-81, 2-Aminocarbonylamino-6-(furan-3-yl)-7-methylindole-3-carboxamide]	96%
NC(=O)Nc1[nH]c2cc(-c3ccc[nH]3)ccc2c1C(N)=O [Compound 5-1, 2-Aminocarbonylamino-6-(pyrrol-2-yl)indole-3-carboxamide]	95%
NC(=O)Nc1[nH]c2cc(-c3cccc(CCO)c3)ccc2c1C(N)=O [Compound 7-5]	97%
NC(=O)Nc1[nH]c2cc(-c3ccncc3)ccc2c1C(N)=O [Compound 7-9]	98%
COc1cc(-c2ccc3c(C(N)=O)c(NC(N)=O)[nH]c3c2)ccc1CO [Compound 7-14]	100%
NC(=O)Nc1[nH]c2cc(-c3ccnc(Cl)c3)ccc2c1C(N)=O [Compound 7-26]	98%

Compound	inhibition at 1 µM
C[C@@H](O)c1cccc(-c2ccc3c(C(N)=O)c(NC(N)=O)[nH]c3c2)c1 [Compound 7-44]	100%
C[C@H](O)c1cccc(-c2ccc3c(C(N)=O)c(NC(N)=O)[nH]c3c2)c1 [Compound 7-45]	98%
NCc1ccc(-c2ccc3c(C(N)=O)c(NC(N)=O)[nH]c3c2)cc1 [Compound 8-3]	100%
CC(N)c1ccc(-c2ccc3c(C(N)=O)c(NC(N)=O)[nH]c3c2)cc1 (stereo not shown) [Compound 8-5]	100%
CC(C)(N)c1ccc(-c2ccc3c(C(N)=O)c(NC(N)=O)[nH]c3c2)cc1 [Compound 8-6]	99%
NC(=O)Nc1[nH]c2cc(C#Cc3ccccc3)ccc2c1C(N)=O [Compound 9-1, 2-Aminocarbonylamino-6-phenylethynylindole-3-carboxamide]	87%
NC(=O)Nc1[nH]c2cc(C#CCO)ccc2c1C(N)=O [Compound 9-2, 2-Aminocarbonylamino-6-(3-hydroxy-1-propynyl) indole-3-carboxamide]	95%
CN(C)CC#Cc1ccc2c(C(N)=O)c(NC(N)=O)[nH]c2c1 [Compound 9-18, 2-Aminocarbonylamino-6-(3-dimethylamino-1-propynyl) indole-3-carboxamide]	94%
C#Cc1ccc2c(C(N)=O)c(NC(N)=O)[nH]c2c1 [Compound 10-1, 2-aminocarbonylamino-6-ethynylindole-3-carboxamide]	100%
CCc1ccc2c(C(N)=O)c(NC(N)=O)[nH]c2c1 [Compound 11-1, 2-Aminocarbonylamino-6-ethylindole-3-carboxamide]	95%
NC(=O)Nc1[nH]c2cc(C3CCCCC3)ccc2c1C(N)=O [Compound 11-4, 2-Aminocarbonylamino-6-cyclohexylindole-3-carboxamide]	100%
NC(=O)Nc1[nH]c2cc(CCCCO)ccc2c1C(N)=O [Compound 11-6, 2-Aminocarbonylamino-6-(4-hydroxybutyl)indole-3-carboxamide]	98%
CN(C)CCCc1ccc2c(C(N)=O)c(NC(N)=O)[nH]c2c1 [Compound 11-8, 2-Aminocarbonylamino-6-(3-dimethylaminopropyl) indole-3-carboxamide]	95%
COCCCc1ccc2c(C(N)=O)c(NC(N)=O)[nH]c2c1 [Compound 11-10, 2-Aminocarbonylamino-6-(3-methoxypropyl)indole-3-carboxamide]	94%
NC(=O)Nc1[nH]c2cc(-c3cccc(CO)c3)ccc2c1C(N)=O [Compound 12-1, 2-aminocarbonylamino-6-(3-hydroxymethylphenyl)indole-3-carboxamide]	100%
NC(=O)Nc1[nH]c2cc(-c3ccc(CO)o3)ccc2c1C(N)=O [Compound 12-2, 2-Aminocarbonylamino-6-(5-hydroxymethylfuran-2-yl) indole-3-carboxamide]	99%
CC(C)NCc1cccc(-c2ccc3c(C(N)=O)c(NC(N)=O)[nH]c3c2)c1 [Compound 13-5, 2-Aminocarbonylamino-6-(3-isopropylaminomethylphenyl) indole-3-carboxamide]	100%
NC(=O)Nc1[nH]c2cc(-c3cccc(CNCCO)c3)ccc2c1C(N)=O [Compound 13-13, 2-Aminocarbonylamino-6-[3-(2-hydroxyethylaminomethyl)phenyl]indole-3-carboxamide]	100%

From patent US8193237B2, “Indole derivative having IκB kinase β inhibitory activity” (Santen Pharmaceutical Co., Ltd., priority 2007, dated 2012)
